The values that follow come from US8906925B2, “Pyrido[4,3-B]indoles containing rigid moieties” (Medivation Technologies, Inc., priority 2008, dated 2014).

Where two headings read alike, the source gives them in different places.

For one assay, the target named is histamine receptor H1 (Homo sapiens, UniProt P35367). The experiment in a line: Histamine H1 radioligand binding ([3H]Pyrilamine). The following applies: read-out: Histamine Binding (1 μM) H1, percent inhibition of specific binding, 1 μM. Summed up: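 Values are percent inhibition of specific [3H]pyrilamine (1.2 nM) binding with compounds at ≤1 μM (1% DMSO vehicle); 180 min incubation at 25 °C, pH 7.4 Tris buffer, on CHO-expressed human H1 receptor; 1 μM pyrilamine defined nonspecific binding, bound ligand counted after filtration.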
Sequence of histamine receptor H1 (P35367 whole entry): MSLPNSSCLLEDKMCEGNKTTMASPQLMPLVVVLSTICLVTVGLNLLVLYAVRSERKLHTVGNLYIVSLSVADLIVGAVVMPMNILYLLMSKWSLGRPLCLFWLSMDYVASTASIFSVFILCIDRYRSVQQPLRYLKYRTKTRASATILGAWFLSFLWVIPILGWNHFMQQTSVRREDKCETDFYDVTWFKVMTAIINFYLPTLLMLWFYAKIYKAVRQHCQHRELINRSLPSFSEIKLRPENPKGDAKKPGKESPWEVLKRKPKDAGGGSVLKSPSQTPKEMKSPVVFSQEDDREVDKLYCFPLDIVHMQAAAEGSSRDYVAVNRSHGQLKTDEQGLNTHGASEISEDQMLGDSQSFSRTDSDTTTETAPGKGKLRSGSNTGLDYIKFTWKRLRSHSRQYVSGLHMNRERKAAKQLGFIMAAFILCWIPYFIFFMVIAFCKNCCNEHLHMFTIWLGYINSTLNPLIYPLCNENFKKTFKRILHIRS

Assay [1] has as its target human dopamine D2L receptor (Homo sapiens, UniProt P14416). Put plainly: Dopamine D2L radioligand binding ([3H]Spiperone). As to conditions: compound at 1 μM. An excerpt: Non-specific binding was estimated in the presence of […] Haloperidol. Receptor proteins were filtered and washed, the filters were then counted to determine [^3H]Spiperone specifically bound. […] Biochemical assay results are presented as the percent inhibition of specific binding in Table 9.

The target of assay [2] is T1, human recombinant serotonin (5-Hydroxytryptamine) 5-HT2A receptor (Homo sapiens, UniProt P28223).
T1 construct: expressed in transfected cells; host or cells: Chinese hamster ovary (CHO-K1) cells
T1 sequence (P28223 whole entry): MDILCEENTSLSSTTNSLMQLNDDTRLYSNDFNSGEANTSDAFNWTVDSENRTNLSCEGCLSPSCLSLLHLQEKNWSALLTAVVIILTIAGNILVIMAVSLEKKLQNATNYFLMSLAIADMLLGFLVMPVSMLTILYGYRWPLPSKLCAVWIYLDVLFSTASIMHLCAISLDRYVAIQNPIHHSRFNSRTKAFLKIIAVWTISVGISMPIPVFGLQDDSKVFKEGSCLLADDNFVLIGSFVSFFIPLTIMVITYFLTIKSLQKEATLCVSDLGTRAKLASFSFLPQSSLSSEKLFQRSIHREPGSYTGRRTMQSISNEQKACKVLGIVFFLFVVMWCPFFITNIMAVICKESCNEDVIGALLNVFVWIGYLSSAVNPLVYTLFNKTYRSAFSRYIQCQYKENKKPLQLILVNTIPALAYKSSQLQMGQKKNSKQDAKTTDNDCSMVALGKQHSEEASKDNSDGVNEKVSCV
Put plainly: Serotonin 5-HT2A radioligand binding ([3H]Ketanserin). The following applies: for inhibition at 1 µM: read-out: Inhibition of ligand binding, Serotonin 5-HT2A (percent inhibition of specific binding), compound at 1 μM. The protocol:
Compounds of the invention were incubated with 0.5 nM [^3H]Ketanserin for 60 min. at 25° C. Non-specific binding was estimated in the presence of 1 μM Mianserin. Receptor proteins were filtered and washed, the filters were then counted to determine [^3H]Ketanserin specifically bound.

The target in assay [3] is T2, human recombinant serotonin (5-Hydroxytryptamine) 5-HT2C receptor (Homo sapiens, UniProt P28335).
T2 construct: expressed in transfected cells; host or cells: Chinese hamster ovary (CHO-K1) cells
T2 sequence (P28335 33-458): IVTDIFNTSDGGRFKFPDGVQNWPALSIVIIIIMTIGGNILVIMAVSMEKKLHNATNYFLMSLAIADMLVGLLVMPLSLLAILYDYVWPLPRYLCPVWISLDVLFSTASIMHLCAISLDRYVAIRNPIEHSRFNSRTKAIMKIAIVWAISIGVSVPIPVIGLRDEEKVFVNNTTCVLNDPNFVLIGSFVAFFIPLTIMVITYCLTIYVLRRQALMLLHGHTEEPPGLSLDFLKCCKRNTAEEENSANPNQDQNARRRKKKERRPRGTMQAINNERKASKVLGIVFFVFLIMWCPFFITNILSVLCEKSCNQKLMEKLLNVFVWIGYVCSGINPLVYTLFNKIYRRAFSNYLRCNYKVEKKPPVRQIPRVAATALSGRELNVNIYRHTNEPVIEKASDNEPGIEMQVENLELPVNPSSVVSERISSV
Put plainly: Serotonin 5-HT2C radioligand binding ([3H]Mesulergine). As to conditions: read-out: Inhibition of ligand binding, Serotonin 5-HT2C (percent inhibition of specific binding); for inhibition at 1 µM: compound at 1 μM. In outline:
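Compounds tested at 1 μM or lower (1% DMSO vehicle) for displacement of 1 nM [3H]Mesulergine over 60 min at 25° C. Specific binding determined by filtration counting, with 1 μM Mianserin defining non-specific binding; values are percent inhibition.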

The target of assay [4] is T3, human recombinant serotonin (5-Hydroxytryptamine) 5-HT6 receptor (Homo sapiens, UniProt P50406).
T3 construct: expressed in transfected cells; host or cells: human HeLa cells
T3 sequence (P50406 whole entry): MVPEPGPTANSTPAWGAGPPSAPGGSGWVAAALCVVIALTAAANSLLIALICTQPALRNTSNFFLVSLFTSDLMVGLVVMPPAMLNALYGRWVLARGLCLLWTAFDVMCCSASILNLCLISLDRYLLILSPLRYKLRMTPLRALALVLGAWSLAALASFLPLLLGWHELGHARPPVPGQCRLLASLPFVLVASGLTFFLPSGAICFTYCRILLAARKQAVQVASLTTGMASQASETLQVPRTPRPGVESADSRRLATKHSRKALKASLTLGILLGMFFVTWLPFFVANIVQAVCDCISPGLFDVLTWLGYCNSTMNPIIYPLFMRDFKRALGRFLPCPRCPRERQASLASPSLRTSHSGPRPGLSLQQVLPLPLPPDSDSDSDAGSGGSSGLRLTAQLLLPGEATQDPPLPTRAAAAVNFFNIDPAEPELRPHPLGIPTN
Put plainly: Serotonin 5-HT6 radioligand binding ([3H]LSD). The following applies: read-out: Inhibition of ligand binding, Serotonin 5-HT6 (percent inhibition of specific binding); for inhibition at 1 µM: compound at 1 μM. The protocol: Compounds of the invention were incubated with 1.5 nM [3H]Lysergic acid diethylamide (LSD) for 120 min. at 37° C. […] Receptor proteins were filtered and washed, the filters were then counted to determine [3H]LSD specifically bound. Compounds were screened at 1 μM or lower, using 1% DMSO as vehicle. Biochemical assay results are presented as the percent inhibition of specific binding in Table 10.

Assay [5] deals with human recombinant serotonin (5-Hydroxytryptamine) 5-HT7 receptor (Homo sapiens, UniProt P34969). The experiment in a line: Serotonin 5-HT7 radioligand binding ([3H]LSD). The following applies: read-out: Inhibition of ligand binding, Serotonin 5-HT7 (percent inhibition of specific binding); for inhibition at 1 µM: compound at 1 μM. The source says: Receptor proteins were filtered and washed, the filters were then counted to determine [^3H]LSD specifically bound.
Sequence of human recombinant serotonin (5-Hydroxytryptamine) 5-HT7 receptor (P34969 whole entry): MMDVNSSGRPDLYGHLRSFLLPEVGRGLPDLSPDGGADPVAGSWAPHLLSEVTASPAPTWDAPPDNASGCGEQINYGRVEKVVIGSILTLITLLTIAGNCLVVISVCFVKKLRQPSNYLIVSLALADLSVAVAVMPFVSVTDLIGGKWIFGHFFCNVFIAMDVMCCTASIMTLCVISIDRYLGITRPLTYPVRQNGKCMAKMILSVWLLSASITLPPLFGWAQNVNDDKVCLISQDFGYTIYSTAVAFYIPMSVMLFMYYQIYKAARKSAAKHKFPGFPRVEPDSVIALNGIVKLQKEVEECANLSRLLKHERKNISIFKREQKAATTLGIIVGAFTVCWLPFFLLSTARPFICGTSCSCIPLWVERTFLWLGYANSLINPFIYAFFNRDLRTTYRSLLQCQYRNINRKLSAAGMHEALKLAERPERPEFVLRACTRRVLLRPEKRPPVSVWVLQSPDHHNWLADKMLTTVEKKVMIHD

Assay [6] deals with T4, human recombinant serotonin 5-HT1B receptor (Homo sapiens, UniProt P28222).
T4 construct: expressed in transfected cells; host or cells: CHO-K1 cell line, membrane extracts
T4 sequence (P28222 whole entry): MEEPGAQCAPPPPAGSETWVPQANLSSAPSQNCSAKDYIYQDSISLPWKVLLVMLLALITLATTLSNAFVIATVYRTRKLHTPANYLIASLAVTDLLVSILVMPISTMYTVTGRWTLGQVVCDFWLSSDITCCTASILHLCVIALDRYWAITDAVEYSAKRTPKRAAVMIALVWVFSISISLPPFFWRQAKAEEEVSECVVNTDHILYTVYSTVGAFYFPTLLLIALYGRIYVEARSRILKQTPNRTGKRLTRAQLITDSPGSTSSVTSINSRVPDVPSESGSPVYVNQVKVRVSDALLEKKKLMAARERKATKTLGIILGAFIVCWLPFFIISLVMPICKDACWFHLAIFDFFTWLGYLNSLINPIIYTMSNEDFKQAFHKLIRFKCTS
Put plainly: 5-HT1B radioligand binding competition assay ([3H]5-CT, CHO-K1 membranes). The following applies: 5 μM, in duplicate, average. The method, then: To determine the binding activity at the human recombinant serotonin 5-HT1B receptor of compounds of the invention, CHO-K1 cell line expressing the human 5-HT1B recombinant receptor was amplified to prepare membranes used for the radioligand binding assay throughout the study. Radioligand binding competition on 5-HT1B was performed by adding successively in the wells of a 96 well plate (Master Block, Greiner, 786201). […] The plate was incubated 60 min at 25° C. in a water bath and then filtered over GF/B filters (Perkin Elmer, 6005177, presoaked in 0.5% PE1 for 2 h at room temperature) with a Filtration unit (Perkin Elmer). The filters were washed 3× with 0.5 mL of ice-cold washing buffer (50 mM Tris pH 7.4). 50 μL Microscint 20 (Packard) was added and the plate was incubated 15 min on an orbital shaker and then counted with a TopCount™ for 1 min/well.
The reference value thus obtained for the test was compared to a historical value obtained from the same receptor and used to validate the experimental session. […] For replicate determinations, the maximum variability tolerated in the test was of +/−20% around the average of the replicates.
Compounds were tested for binding activity in the radioligand binding competition assay on human 5-HT1B receptor, at one concentration […], in duplicate. Dose-response data from test compounds were analyzed with XLfit (IDBS) software using nonlinear regression applied to a sigmoidal dose-response model.
Dose-response data was analyzed with XLfit (IDBS) software using non-linear regression applied to a sigmoidal dose-response model.

Assay [7] addresses T5, human recombinant histamine H2 receptor (Homo sapiens, UniProt P25021).
T5 construct: expressed in transfected cells; host or cells: Chinese hamster ovary (CHO) K1 cells
The experiment in a line: Histamine H2 radioligand binding ([125I]Aminopotentidine). The following applies: read-out: Histamine Binding (1 μM) H2, percent inhibition of specific binding, 1 μM. Summed up: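 CHO-K1 cells expressing human recombinant H2 receptor, 50 mM phosphate buffer pH 7.4; compounds incubated with 0.1 nM [125I]aminopotentidine for 120 min at 25 °C. Nonspecific binding defined with 3 μM tiotidine; specifically bound radioligand counted after filtration and washing.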

Setting [8] is: percent inhibition of specific binding, read-out: Inhibition of ligand binding, Dopamine D2L.
[9] abbreviates: […] [3H]Spiperone, read-out: Inhibition of ligand binding, Dopamine D2L (percent inhibition of specific binding).

Sequence of human dopamine D2L receptor (P14416 whole entry): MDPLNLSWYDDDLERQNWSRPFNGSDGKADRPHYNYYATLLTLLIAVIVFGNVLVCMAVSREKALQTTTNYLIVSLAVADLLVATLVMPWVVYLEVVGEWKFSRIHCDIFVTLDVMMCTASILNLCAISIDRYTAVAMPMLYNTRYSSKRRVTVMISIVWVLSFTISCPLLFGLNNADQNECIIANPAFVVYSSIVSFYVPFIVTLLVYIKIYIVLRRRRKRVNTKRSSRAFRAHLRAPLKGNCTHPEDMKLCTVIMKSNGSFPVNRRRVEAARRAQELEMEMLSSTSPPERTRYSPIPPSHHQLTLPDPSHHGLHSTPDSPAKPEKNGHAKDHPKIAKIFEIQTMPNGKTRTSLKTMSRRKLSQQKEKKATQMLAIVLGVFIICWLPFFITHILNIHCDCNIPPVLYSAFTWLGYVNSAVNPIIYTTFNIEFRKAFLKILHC
T5 sequence (P25021 whole entry): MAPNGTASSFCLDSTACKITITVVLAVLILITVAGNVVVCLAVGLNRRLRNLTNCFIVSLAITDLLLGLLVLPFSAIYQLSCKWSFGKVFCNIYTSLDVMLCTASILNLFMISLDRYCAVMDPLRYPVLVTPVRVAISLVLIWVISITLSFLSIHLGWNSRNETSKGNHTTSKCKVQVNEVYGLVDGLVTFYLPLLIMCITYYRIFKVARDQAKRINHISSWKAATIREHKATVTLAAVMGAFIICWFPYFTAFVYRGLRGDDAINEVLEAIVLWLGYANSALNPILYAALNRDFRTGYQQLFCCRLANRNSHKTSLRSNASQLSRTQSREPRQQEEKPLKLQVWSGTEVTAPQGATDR

For orientation: inhibition means the drop in the measured response relative to a control, in per cent. As to `C/C(=C/n1c2c(c3cc(C)ccc31)CN(C)CC2)c1ccc(F)cc1F` [Compound 274, (Z)-5-(2-(2,4-difluorophenyl)prop-1-enyl)-2,8-dimethyl-2,3,4,5-tetrahydro-1H-pyrido[4,3-b]indole], the inhibition at 1 µM was 72% at histamine receptor H1 and 56% in assay [1] (setting [8]). For the same compound, the inhibition at 0.1 µM in assay [2] (read-out: Inhibition of ligand binding, Serotonin 5-HT2A (percent inhibition of specific binding), compound at 0.1 μM) is 98%; in assay [3] (compound at 0.1 μM), 99%; in assay [4] (compound at 0.1 μM) it was 97%; in assay [5] (compound at 0.1 μM), 94%. Also, the “5-HT1B (5 μM) % Binding relative to bound radioligand” value in assay [6] is given as 6%.
For the compound `C/C=C(\Cn1c2c(c3cc(C)ccc31)CN(C)CC2)c1ccncc1` [Compound No. 359, (Z)-2,8-dimethyl-5-(2-(pyridin-4-yl)but-2-enyl)-2,3,4,5-tetrahydro-1H-pyrido[4,3-b]indole], the inhibition at 1 µM was found to be 38% on histamine receptor H1 and 27% in assay [1] (setting [9]). The “5-HT1B (5 μM) % Binding relative to bound radioligand” value in assay [6] is reported as 68%.
Turning to `COc1ccc2c(c1)c1c(n2CC(C)(O)c2ccncc2)CCN(C)C1` (stereo not drawn) [Compound 188, 1-(8-methoxy-2-methyl-3,4-dihydro-1H-pyrido[4,3-b]indol-5(2H)-yl)-2-(pyridin-4-yl)propan-2-ol], the inhibition at 1 µM on histamine receptor H1 is 8%; in assay [7] it was 13%; in assay [1] (setting [8]), -5%; in assay [2], 50%; in assay [3], 66%; in assay [4], 9%. Also, the inhibition at 1 µM in assay [5] is 45%.
As to `CN1CCc2c(c3cc(Cl)c(Cl)cc3n2CC(C)(O)c2ccncc2)C1` (stereo not drawn) [Compound 189, 1-(7,8-dichloro-2-methyl-3,4-dihydro-1H-pyrido[4,3-b]indol-5(2H)-yl)-2-(pyridin-4-yl)propan-2-ol], the inhibition at 1 µM on histamine receptor H1 came to 77%; in assay [7] it was 85%; in assay [1] (setting [8]), 2%; in assay [2] it was 96%; in assay [3], 91%; in assay [4] it was 87%. Further, in assay [5], the inhibition at 1 µM turned out to be 82%.
For the compound `C/C(=C\n1c2c(c3cc(Cl)ccc31)CN(C)CC2)c1cc(Cl)cc(Cl)c1` [Compound 215, (E)-8-chloro-5-(2-(3,5-dichlorophenyl)prop-1-enyl)-2-methyl-2,3,4,5-tetrahydro-1H-pyrido[4,3-b]indole], the inhibition at 1 µM at histamine receptor H1 was 89%; in assay [7], 98%; in assay [1] (setting [8]), 36%; in assay [2], 97%; in assay [3] it was 96%; in assay [4], 97%. Also, the inhibition at 1 µM in assay [5] was found to be 90%.
With `C/C(=C\n1c2c(c3cc(C)ccc31)CN(C)CC2)c1ccc(Cl)c(Cl)c1` [Compound 231, (E)-5-(2-(3,4-dichlorophenyl)prop-1-enyl)-2,8-dimethyl-2,3,4,5-tetrahydro-1H-pyrido[4,3-b]indole], the inhibition at 1 µM on histamine receptor H1 came out at 58%; in assay [7], 97%; in assay [1] (setting [8]) it was 40%; in assay [2], 101%; in assay [3] it was 98%; in assay [4], 97%. In addition, the inhibition at 1 µM in assay [5] amounted to 94%.
Turning to `CN1CCc2c(c3ccccc3n2CC(C)(O)c2ccncc2)C1` (stereo not drawn) [Compound 186, 1-(2-methyl-3,4-dihydro-1H-pyrido[4,3-b]indol-5(2H)-yl)-2-(pyridin-4-yl)propan-2-ol], the inhibition at 1 µM at histamine receptor H1 is 1%; in assay [7] it was 22%; in assay [1] (setting [8]), 3%; in assay [2], 74%; in assay [3] it was 72%; in assay [4], 12%. In addition, the inhibition at 1 µM in assay [5] is 37%.
Take `C/C(=C\n1c2c(c3ccc(F)cc31)CN(C)CC2)c1ccc(F)cc1` [Compound 227, (E)-7-fluoro-5-(2-(4-fluorophenyl)prop-1-enyl)-2-methyl-2,3,4,5-tetrahydro-1H-pyrido[4,3-b]indole]: the inhibition at 1 µM amounted to 52% on histamine receptor H1; 101% in assay [7]; 97% in assay [1] (setting [8]); 103% in assay [2]; 103% in assay [3]; 107% in assay [4]. The inhibition at 1 µM in assay [5] came out at 90%.
With `Cc1ccc(C#Cn2c3c(c4cc(Cl)ccc42)CN(C)CC3)cn1` [Compound No. 484, 8-chloro-2-methyl-5-((6-methylpyridin-3-yl)ethynyl)-2,3,4,5-tetrahydro-1H-pyrido[4,3-b]indole], the inhibition at 1 µM at histamine receptor H1 was 6%; in assay [7] it was 77%; in assay [1] (setting [9]) it was -4%; in assay [2], 98%; in assay [3] it was 95%; in assay [4], 34%. For the same compound, the inhibition at 1 µM in assay [5] came out at 83%.
`C/C(=C\n1c2c(c3cc(Cl)ccc31)CN(C)CC2)c1cccc(F)c1` [Compound 234, (E)-8-chloro-5-(2-(3-fluorophenyl)prop-1-enyl)-2-methyl-2,3,4,5-tetrahydro-1H-pyrido[4,3-b]indole]: the inhibition at 1 µM came to 69% at histamine receptor H1; 94% in assay [7]; 73% in assay [1] (setting [8]); 100% in assay [2]; 102% in assay [3]; 101% in assay [4]. Moreover, in assay [5], the inhibition at 1 µM stood at 99%.
